Source: US20110319484A1, “NEUROPROTECTIVE COMPOUNDS” (Parque Tecnologico de Ciencias de la Salud, priority 2009, published 2011)

How the values were obtained:
[1] = test system: human neuroblastoma SK-N-MC cells; assay: Inhibition of ROS production induced by xanthine/xanthine oxidase (H2DCFDA probe, LDH-normalized); format: cell-based; conditions: XXO 10 μM-100 mU/ml, 3 h, at 10 μg/ml, inhibition observed at 10 and 20 μg/ml, read-out: maximum inhibition of ROS production relating to XXO
Protocol: The assay was performed on human neuroblastoma SK-N-MC cells in culture from the American Type Culture Collection (ATCC) (HTB-10), in all cases strict rules of sterility were followed and the manipulation was performed in class II biological safety cabinets following European standard EN 12469. The cells were maintained in Minimum Essential Medium Eagle (MEM) culture medium supplemented with 1 mM sodium pyruvate, 2 mM L-glutamine, 0.1 mM non-essential amino acids, 0.05 mg/ml gentamicin and 10% fetal bovine serum.
The inhibition by the NST0003 compound [(1S,3R,7S,8S,8aR)-1,2,3,7,8,8a-hexahydro-3,7-dimethyl-8-[2-[(2R,4R)-tetrahydro-4-hydroxy-6-oxo-2H-pyran-2-yl]ethyl-1-naphthalenyl propanoate] on the production of reactive oxygen species (ROS) in the SK-N-MC cells, was analyzed. […]
The cells were incubated (at 37° C. and 5% CO2) with these treatments for 3 h, after which time they were washed with HKRB buffer (20 mM HEPES, 103 mM NaCl, 4.77 mM KCl, 0.5 mM CaCl2, 1.2 mM MgCl2, 1.2 mM KH2PO4, 25 mM […], 15 mM glucose; at pH 7.3) after which the 2′,7′-dichlorodihydrofluorescein diacetate (H2DCFDA) probe was added at 30 μM diluted in HKRB buffer and it was incubated for another 2 hours in the same conditions. The reading of the plate was taken in a fluorometer at the conditions of 485 nm for excitation and 538 nm for emission. […]

[2] = test system: human neuroblastoma SK-N-MC cells; assay: Protection against neuronal death induced by oxidative stress (XXO), WST-1 test; format: cell-based; conditions: XXO 10 μM-60 mU/ml, 22 h, at 10 μg/ml, protection at 4, 10 and 20 μg/ml
Protocol: To perform this assay, the inhibition caused by the NST0005 compound [(1S,3R,7S,8S,8aR)-1,2,3,7,8,8a-hexahydro-3,7-dimethyl-8-[2-[(2R,4R)-tetrahydro-4-hydroxy-6-oxo-2H-pyran-2-yl]ethyl-1-naphthalenyl 2,2-dimethyl-propanoate] of cell death caused by the treatment with xanthine/xanthine oxidase (XXO) which, as has already been mentioned, generates oxidative damage (produces free radicals such as hydrogen peroxide, superoxide anion, hydroxyl radical) which triggers cell death, was analyzed. These cells [SK-N-MC], not exceeding 15 passages, were seeded on 96-well plates treated for adherent cells with a cell concentration of 5×10^4 cells/well; 3 wells of the plate were seeded for each condition of the assay.
After 24 h of cell incubation at 37° C. and 5% CO2, the cell treatments were performed with 100 μl of total volume for the following conditions: (i), control (culture medium); (ii), xanthine/xanthine oxidase (XXO) [10 μM-60 mU/ml]; and (iii), XXO [10 μM-60 mU/ml] and NST0005 at different concentrations [4, 10, 20 and 40 μg/ml].
The cells were incubated (at 37° C. and 5% CO2) with these treatments for 22 h, after which time the WST-1 reagent (Roche) was added. […] The formazan which is formed can be detected colorimetrically since it has an absorbance of 440 nm. The reading was taken in a plate reader at 440 nm 2 hours after adding the reagent. […]

cerebral cortex of mice = assay: Neuroprotection in the cerebral cortex (lateral entorhinal and amygdaloid nuclei) of mice after kainate; format: in vivo, mice (FVB/NHan); conditions: KA 25 mg/kg i.p., NST0005 50 mg/kg i.p. daily
Protocol: All the animals included during the experimental process were 12-week old males of the FVB/NHan strain. The experiments were carried out strictly following the Guidance on the Operation of Animals (Scientific Procedures, Act. 1986). The animals had their respective quarantine period and were treated with maximum precaution to minimize possible contaminations for inoculations and handling.
Sixteen animals were used in this assay and the treatments were all carried out by intraperitoneal (i.p.) route with a volume of 100 μl, according to the following regimens: • i) PBS+PBS+PBS regimen: 4 animals were initially treated with PBS with a daily dose for 2 days, on the second day the animals were inoculated with a new dose of PBS and for the next 7 days with a daily dose of PBS. • ii) PBS+KA+PBS regimen: 6 animals were initially treated with PBS with a daily dose for 2 days, on the second day the animals were inoculated with a dose of kainate at 25 mg/kg and for the next 7 days with a daily dose of PBS. • iii) NST0005+KA+NST0005 regimen: 6 animals were initially treated with NST0005 with a daily dose of 50 mg/kg for 2 days, on the second day the animals were inoculated with a dose of kainate at 25 mg/kg and for the next 7 days with a daily dose of NST0005 at 50 mg/kg.
Once the treatment period of 7 days ended, the animals were sacrificed and the brains were dissected. […]

## CCC(=O)O[C@H]1C[C@@H](C)C=C2C=C[C@H](C)[C@H](CC[C@@H]3C[C@@H](O)CC(=O)O3)[C@H]21 [NST0003, (1S,3R,7S,8S,8aR)-1,2,3,7,8,8a-hexahydro-3,7-dimethyl-8-[2-[(2R,4R)-tetrahydro-4-hydroxy-6-oxo-2H-pyran-2-yl]ethyl-1-naphthalenyl propanoate]
[1]
  inhibition at 10 µg/mL: 33%

## C[C@H]1C=C2C=C[C@H](C)[C@H](CC[C@@H]3C[C@@H](O)CC(=O)O3)[C@H]2[C@@H](OC(=O)C(C)(C)C)C1 [NST0005]
[2]
  maximum reduction of the percentage of cell death relating to death caused by XXO: 50%
Cerebral cortex of mice
  neuritic dystrophy in the cerebral cortex (MAP2): significantly reduces neuronal damage by neuritic dystrophy
  reactive astrogliosis in the cerebral cortex (GFAP): significantly prevents reactive astrogliosis
